Laboratory results as given in PMC9954146, “Anti-Leukaemic Activity of Rilpivirine Is Mediated by Aurora A Kinase Inhibition” (Cancers, 2023).

Legend:
Experiment in all cases: Kinase panel
Assay type in all cases: biochemical
EGFR(T790M)(h) = target: T1, EGFR(T790M)(h) (Homo sapiens, UniProt P00533, T790M); settings: read-out: % Residual Activity
T1 construct: purchased Eurofins (KinaseProfiler)
Summary of the method: (§1)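 Selectivity panel (kinome-wide), rilpivirine as test compound. Readout: radiolabel incorporation. ATP = Km of the respective kinase. Ki calculated from IC50 (Cheng–Prusoff).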

TAO1(h) = target: T2, TAO1(h) (Homo sapiens, UniProt Q7L7X3); settings: read-out: % Residual Activity
T2 construct: purchased Eurofins (KinaseProfiler)
Summary of the method: as §1

Pim-3(h) = target: T3, Pim-3(h) (Homo sapiens, UniProt Q86V86); settings: read-out: % Residual Activity
T3 construct: purchased Eurofins (KinaseProfiler)
Summary of the method: as §1

EphB3(h) = target: T4, EphB3(h) (Homo sapiens, UniProt P54753); settings: read-out: % Residual Activity
T4 construct: purchased Eurofins (KinaseProfiler)
Summary of the method: as §1

MSSK1(h) = target: T5, MSSK1(h) (Homo sapiens, UniProt Q9UPE1); settings: read-out: % Residual Activity
T5 construct: purchased Eurofins (KinaseProfiler)
Summary of the method: as §1

STK32C(h) = target: T6, STK32C(h) (Homo sapiens, UniProt Q86UX6); settings: read-out: % Residual Activity
T6 construct: purchased Eurofins (KinaseProfiler)
Summary of the method: as §1

Rsk1(h) = target: T7, Rsk1(h) (Homo sapiens, UniProt Q15418); settings: read-out: % Residual Activity
T7 construct: purchased Eurofins (KinaseProfiler)
Summary of the method: as §1

CaMKIIδ(h) = target: T8, CaMKIIδ(h) (Homo sapiens, UniProt Q13557); settings: read-out: % Residual Activity
T8 construct: purchased Eurofins (KinaseProfiler)
Summary of the method: as §1

GSK3α(h) = target: T9, GSK3α(h) (Homo sapiens, UniProt P49840); settings: read-out: % Residual Activity
T9 construct: purchased Eurofins (KinaseProfiler)
Summary of the method: as §1

PKCδ(h) = target: T10, PKCδ(h) (Homo sapiens, UniProt Q05655); settings: read-out: % Residual Activity
T10 construct: purchased Eurofins (KinaseProfiler)
Summary of the method: as §1

SRPK1(h) = target: T11, SRPK1(h) (Homo sapiens, UniProt Q96SB4); settings: read-out: % Residual Activity
T11 construct: purchased Eurofins (KinaseProfiler)
Summary of the method: as §1

MAP4K3(h) = target: T12, MAP4K3(h) (Homo sapiens, UniProt Q8IVH8); settings: read-out: % Residual Activity
T12 construct: purchased Eurofins (KinaseProfiler)
Summary of the method: as §1

IKKβ(h) = target: T13, IKKβ(h) (Homo sapiens, UniProt O14920); settings: read-out: % Residual Activity
T13 construct: purchased Eurofins (KinaseProfiler)
Summary of the method: as §1

RIPK2(h) = target: T14, RIPK2(h) (Homo sapiens, UniProt O43353); settings: read-out: % Residual Activity
T14 construct: purchased Eurofins (KinaseProfiler)
Summary of the method: as §1

cKit(D816V)(h) = target: T15, cKit(D816V)(h) (Homo sapiens, UniProt P10721, D816V); settings: read-out: % Residual Activity
T15 construct: purchased Eurofins (KinaseProfiler)
Summary of the method: as §1

CDK6/cyclinD3(h) = target: T16, CDK6/cyclinD3(h) (Homo sapiens, UniProt Q00534); settings: read-out: % Residual Activity
T16 construct: purchased Eurofins (KinaseProfiler)
Summary of the method: as §1

CDKL1(h) = target: T17, CDKL1(h) (Homo sapiens, UniProt Q00532); settings: read-out: % Residual Activity
T17 construct: purchased Eurofins (KinaseProfiler)
Summary of the method: as §1

CK1γ3(h) = target: T18, CK1γ3(h) (Homo sapiens, UniProt Q9Y6M4); settings: read-out: % Residual Activity
T18 construct: purchased Eurofins (KinaseProfiler)
Summary of the method: as §1

mTOR/FKBP12(h) = target: T19, mTOR/FKBP12(h) (Homo sapiens, UniProt P42345); settings: read-out: % Residual Activity
T19 construct: purchased Eurofins (KinaseProfiler)
Summary of the method: as §1

Wee1(h) = target: T20, Wee1(h) (Homo sapiens, UniProt P30291); settings: read-out: % Residual Activity
T20 construct: purchased Eurofins (KinaseProfiler)
Summary of the method: as §1

VRK1(h) = target: T21, VRK1(h) (Homo sapiens, UniProt Q99986); settings: read-out: % Residual Activity
T21 construct: purchased Eurofins (KinaseProfiler)
Summary of the method: as §1

HIPK4(h) = target: T22, HIPK4(h) (Homo sapiens, UniProt Q8NE63); settings: read-out: % Residual Activity
T22 construct: purchased Eurofins (KinaseProfiler)
Summary of the method: as §1

HIPK3(h) = target: T23, HIPK3(h) (Homo sapiens, UniProt Q9H422); settings: read-out: % Residual Activity
T23 construct: purchased Eurofins (KinaseProfiler)
Summary of the method: as §1

CaMKIIβ(h) = target: T24, CaMKIIβ(h) (Homo sapiens, UniProt Q13554); settings: read-out: % Residual Activity
T24 construct: purchased Eurofins (KinaseProfiler)
Summary of the method: as §1

WNK2(h) = target: T25, WNK2(h) (Homo sapiens, UniProt Q9Y3S1); settings: read-out: % Residual Activity
T25 construct: purchased Eurofins (KinaseProfiler)
Summary of the method: as §1

SAPK3(h) = target: T26, SAPK3(h) (Homo sapiens, UniProt P53778); settings: read-out: % Residual Activity
T26 construct: purchased Eurofins (KinaseProfiler)
Summary of the method: as §1

Abl (H396P) (h) = target: T27, Abl (H396P) (h) (Homo sapiens, UniProt P00519, H396P); settings: read-out: % Residual Activity
T27 construct: purchased Eurofins (KinaseProfiler)
Summary of the method: as §1

PKCζ(h) = target: T28, PKCζ(h) (Homo sapiens, UniProt Q05513); settings: read-out: % Residual Activity
T28 construct: purchased Eurofins (KinaseProfiler)
Summary of the method: as §1

CLK3(h) = target: T29, CLK3(h) (Homo sapiens, UniProt P49761); settings: read-out: % Residual Activity
T29 construct: purchased Eurofins (KinaseProfiler)
Summary of the method: as §1

PKG1α(h) = target: T30, PKG1α(h) (Homo sapiens, UniProt Q13976); settings: read-out: % Residual Activity
T30 construct: purchased Eurofins (KinaseProfiler)
Summary of the method: as §1

NEK11(h) = target: T31, NEK11(h) (Homo sapiens, UniProt Q8NG66); settings: read-out: % Residual Activity
T31 construct: purchased Eurofins (KinaseProfiler)
Summary of the method: as §1

MLK3(h) = target: T32, MLK3(h) (Homo sapiens, UniProt Q16584); settings: read-out: % Residual Activity
T32 construct: purchased Eurofins (KinaseProfiler)
Summary of the method: as §1

EphA1(h) = target: T33, EphA1(h) (Homo sapiens, UniProt P21709); settings: read-out: % Residual Activity
T33 construct: purchased Eurofins (KinaseProfiler)
Summary of the method: as §1

TLK1(h) = target: T34, TLK1(h) (Homo sapiens, UniProt Q9UKI8); settings: read-out: % Residual Activity
T34 construct: purchased Eurofins (KinaseProfiler)
Summary of the method: as §1

MST3(h) = target: T35, MST3(h) (Homo sapiens, UniProt Q9Y6E0); settings: read-out: % Residual Activity
T35 construct: purchased Eurofins (KinaseProfiler)
Summary of the method: as §1

Pim-1(h) = target: T36, Pim-1(h) (Homo sapiens, UniProt P11309)
T36 construct: purchased Eurofins (KinaseProfiler)
Summary of the method: as §1

PI3KC2g(h) = PI3KC2g(h) (Homo sapiens, UniProt O75747); settings: read-out: % Residual Activity
Summary of the method: as §1

JNK2α2(h) = target: T37, JNK2α2(h) (Homo sapiens, UniProt P45984); settings: read-out: % Residual Activity
T37 construct: purchased Eurofins (KinaseProfiler)
Summary of the method: as §1

T36 sequence (P11309 whole entry): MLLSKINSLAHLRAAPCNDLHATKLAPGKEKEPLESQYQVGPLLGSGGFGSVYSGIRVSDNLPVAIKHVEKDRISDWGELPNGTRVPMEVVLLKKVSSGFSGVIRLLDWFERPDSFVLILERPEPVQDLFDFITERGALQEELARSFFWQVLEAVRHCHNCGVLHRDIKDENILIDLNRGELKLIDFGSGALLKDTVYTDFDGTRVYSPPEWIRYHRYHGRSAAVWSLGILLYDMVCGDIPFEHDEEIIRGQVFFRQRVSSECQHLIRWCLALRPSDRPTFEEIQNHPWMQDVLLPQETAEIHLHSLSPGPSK
T18 sequence (Q9Y6M4 whole entry): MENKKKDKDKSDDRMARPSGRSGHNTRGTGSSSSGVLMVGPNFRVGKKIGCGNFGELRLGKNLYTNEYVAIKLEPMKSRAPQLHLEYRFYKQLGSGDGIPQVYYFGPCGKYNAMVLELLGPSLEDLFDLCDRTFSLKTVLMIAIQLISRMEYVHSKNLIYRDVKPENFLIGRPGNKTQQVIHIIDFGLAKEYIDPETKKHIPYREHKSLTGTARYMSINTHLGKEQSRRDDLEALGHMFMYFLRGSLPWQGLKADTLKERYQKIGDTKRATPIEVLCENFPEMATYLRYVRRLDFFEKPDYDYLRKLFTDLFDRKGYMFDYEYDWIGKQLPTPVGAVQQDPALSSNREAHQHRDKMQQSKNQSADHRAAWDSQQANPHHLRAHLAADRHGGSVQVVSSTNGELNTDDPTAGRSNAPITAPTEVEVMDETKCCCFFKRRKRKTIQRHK
T26 sequence (P53778 whole entry): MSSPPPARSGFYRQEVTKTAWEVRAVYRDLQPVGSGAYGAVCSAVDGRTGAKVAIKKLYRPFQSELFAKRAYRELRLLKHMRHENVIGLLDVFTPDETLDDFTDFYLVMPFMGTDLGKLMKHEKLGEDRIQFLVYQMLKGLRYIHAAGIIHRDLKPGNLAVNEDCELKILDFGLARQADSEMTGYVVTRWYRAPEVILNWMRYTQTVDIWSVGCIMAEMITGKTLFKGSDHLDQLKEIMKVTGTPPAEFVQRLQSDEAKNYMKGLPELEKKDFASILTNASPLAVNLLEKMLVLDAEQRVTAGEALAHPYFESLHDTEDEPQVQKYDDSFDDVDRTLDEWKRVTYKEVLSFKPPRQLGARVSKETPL
T2 sequence (Q7L7X3 whole entry): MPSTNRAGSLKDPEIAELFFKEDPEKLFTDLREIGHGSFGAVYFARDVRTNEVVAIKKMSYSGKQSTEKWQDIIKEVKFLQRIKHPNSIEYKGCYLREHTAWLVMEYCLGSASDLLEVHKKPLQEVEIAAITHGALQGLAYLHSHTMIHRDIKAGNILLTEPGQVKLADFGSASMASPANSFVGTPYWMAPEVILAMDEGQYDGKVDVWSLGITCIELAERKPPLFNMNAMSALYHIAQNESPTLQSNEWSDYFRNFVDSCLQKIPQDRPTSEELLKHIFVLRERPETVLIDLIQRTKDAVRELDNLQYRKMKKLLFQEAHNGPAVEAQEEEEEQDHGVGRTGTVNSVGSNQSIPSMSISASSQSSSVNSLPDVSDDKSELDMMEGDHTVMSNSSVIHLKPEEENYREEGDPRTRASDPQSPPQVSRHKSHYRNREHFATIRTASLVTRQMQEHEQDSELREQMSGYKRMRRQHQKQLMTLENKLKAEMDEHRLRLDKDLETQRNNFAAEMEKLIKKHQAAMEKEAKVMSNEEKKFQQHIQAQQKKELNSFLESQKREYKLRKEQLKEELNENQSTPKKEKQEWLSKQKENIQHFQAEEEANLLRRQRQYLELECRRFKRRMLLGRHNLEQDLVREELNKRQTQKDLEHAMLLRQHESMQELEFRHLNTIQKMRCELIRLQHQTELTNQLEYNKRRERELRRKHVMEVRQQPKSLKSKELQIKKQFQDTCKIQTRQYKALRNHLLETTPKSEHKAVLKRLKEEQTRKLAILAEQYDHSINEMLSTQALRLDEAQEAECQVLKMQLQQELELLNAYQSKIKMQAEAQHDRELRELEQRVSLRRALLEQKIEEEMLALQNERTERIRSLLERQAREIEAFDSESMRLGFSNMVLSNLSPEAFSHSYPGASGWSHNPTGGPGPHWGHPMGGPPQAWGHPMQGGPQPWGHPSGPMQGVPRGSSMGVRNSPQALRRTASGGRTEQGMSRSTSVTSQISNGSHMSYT
T23 sequence (Q9H422 whole entry): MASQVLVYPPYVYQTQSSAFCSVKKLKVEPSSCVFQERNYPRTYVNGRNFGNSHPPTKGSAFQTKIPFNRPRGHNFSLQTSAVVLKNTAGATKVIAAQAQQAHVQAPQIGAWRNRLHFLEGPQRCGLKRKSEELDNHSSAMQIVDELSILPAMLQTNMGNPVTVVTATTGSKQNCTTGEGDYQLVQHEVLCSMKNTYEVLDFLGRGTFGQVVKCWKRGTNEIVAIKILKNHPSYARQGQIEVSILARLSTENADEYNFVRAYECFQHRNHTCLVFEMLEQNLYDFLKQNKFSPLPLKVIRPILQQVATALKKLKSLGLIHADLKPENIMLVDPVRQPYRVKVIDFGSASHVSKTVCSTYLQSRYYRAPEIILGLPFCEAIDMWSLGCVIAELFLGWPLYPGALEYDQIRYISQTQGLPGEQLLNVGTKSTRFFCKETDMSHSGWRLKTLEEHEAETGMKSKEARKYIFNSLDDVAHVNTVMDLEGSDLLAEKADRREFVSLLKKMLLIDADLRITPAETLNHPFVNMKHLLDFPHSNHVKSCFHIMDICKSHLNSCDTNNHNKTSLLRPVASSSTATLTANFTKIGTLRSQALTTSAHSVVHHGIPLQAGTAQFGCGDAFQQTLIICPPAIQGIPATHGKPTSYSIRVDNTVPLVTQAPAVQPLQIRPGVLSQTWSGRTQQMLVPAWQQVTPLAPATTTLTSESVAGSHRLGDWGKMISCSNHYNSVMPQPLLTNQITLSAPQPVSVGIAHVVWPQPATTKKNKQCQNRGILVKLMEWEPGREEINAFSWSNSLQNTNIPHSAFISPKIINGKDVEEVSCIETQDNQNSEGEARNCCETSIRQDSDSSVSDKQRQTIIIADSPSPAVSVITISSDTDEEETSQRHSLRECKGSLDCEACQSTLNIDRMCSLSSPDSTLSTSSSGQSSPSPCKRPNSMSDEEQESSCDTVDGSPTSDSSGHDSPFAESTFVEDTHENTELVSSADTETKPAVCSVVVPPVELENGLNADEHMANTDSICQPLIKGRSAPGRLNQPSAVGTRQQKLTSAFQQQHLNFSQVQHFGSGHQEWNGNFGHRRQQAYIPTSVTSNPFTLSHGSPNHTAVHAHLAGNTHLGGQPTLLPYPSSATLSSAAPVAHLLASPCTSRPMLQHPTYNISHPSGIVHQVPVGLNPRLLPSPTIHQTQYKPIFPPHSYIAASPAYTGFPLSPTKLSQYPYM
T19 sequence (P42345 1362-2549 limits assumed): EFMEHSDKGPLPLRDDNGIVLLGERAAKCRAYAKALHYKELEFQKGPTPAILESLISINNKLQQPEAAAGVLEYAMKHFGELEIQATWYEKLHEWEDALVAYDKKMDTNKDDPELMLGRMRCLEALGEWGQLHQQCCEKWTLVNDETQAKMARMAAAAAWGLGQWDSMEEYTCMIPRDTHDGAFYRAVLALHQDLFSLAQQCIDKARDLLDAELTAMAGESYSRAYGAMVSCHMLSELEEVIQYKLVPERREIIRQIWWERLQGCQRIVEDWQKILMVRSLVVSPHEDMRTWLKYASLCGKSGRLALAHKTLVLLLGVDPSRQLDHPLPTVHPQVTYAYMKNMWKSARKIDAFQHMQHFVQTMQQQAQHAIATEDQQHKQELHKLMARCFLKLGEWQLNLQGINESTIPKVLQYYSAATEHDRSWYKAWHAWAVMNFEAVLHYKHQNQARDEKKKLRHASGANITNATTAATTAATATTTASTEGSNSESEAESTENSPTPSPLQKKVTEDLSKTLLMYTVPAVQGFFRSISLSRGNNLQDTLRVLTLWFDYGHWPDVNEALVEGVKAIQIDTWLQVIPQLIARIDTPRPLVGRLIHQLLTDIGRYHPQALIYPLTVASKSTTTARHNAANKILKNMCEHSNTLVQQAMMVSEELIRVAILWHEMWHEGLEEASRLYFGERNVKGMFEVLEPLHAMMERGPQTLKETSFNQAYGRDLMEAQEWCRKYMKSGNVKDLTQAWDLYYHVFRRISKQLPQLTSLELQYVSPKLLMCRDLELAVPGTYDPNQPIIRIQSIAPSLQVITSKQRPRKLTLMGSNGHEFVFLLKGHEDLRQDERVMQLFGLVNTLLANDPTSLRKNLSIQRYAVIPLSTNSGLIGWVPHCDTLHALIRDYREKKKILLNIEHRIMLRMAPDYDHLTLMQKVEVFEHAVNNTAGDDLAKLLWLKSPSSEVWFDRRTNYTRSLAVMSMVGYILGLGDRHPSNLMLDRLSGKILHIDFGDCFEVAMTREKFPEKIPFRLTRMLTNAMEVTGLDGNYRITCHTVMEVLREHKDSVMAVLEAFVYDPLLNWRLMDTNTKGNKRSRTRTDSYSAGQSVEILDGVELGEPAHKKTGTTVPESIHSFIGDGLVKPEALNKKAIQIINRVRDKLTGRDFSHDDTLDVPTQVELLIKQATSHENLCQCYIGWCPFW
T6 sequence (Q86UX6 whole entry): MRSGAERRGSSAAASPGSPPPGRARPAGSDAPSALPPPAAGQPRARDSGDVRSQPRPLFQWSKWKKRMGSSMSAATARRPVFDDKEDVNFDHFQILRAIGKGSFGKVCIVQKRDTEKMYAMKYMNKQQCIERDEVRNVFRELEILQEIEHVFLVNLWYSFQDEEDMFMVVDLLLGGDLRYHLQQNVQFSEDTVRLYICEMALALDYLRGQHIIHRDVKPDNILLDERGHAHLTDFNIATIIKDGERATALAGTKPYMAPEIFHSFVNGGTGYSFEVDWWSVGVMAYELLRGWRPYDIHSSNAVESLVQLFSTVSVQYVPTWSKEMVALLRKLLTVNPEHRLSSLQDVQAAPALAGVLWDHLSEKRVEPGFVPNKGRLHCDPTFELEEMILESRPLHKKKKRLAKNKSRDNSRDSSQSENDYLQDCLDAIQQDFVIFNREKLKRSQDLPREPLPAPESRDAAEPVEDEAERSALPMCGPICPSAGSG

## Cc1cc(/C=C/C#N)cc(C)c1Nc1ccnc(Nc2ccc(C#N)cc2)n1 [rilpivirine, (E)-4-((4-((4-(2-cyanoethenyl)-2,6-dimethylphenyl)amino)pyrimidin-2-yl)amino)benzonitrile]
EGFR(T790M)(h)
  remaining activity at 1 µM: 79%
TAO1(h)
  remaining activity at 1 µM: 41%
Pim-3(h)
  remaining activity at 1 µM: 89%
EphB3(h)
  remaining activity at 1 µM: 88%
MSSK1(h)
  remaining activity at 1 µM: 84%
STK32C(h)
  remaining activity at 1 µM: 94%
Rsk1(h)
  remaining activity at 1 µM: 91%
CaMKIIδ(h)
  remaining activity at 1 µM: 47%
GSK3α(h)
  remaining activity at 1 µM: 80%
PKCδ(h)
  remaining activity at 1 µM: 72%
SRPK1(h)
  remaining activity at 1 µM: 84%
MAP4K3(h)
  remaining activity at 1 µM: 91%
IKKβ(h)
  remaining activity at 1 µM: 95%
RIPK2(h)
  remaining activity at 1 µM: 45%
cKit(D816V)(h)
  remaining activity at 1 µM: 88%
CDK6/cyclinD3(h)
  remaining activity at 1 µM: 96%
CDKL1(h)
  remaining activity at 1 µM: 75%
CK1γ3(h)
  remaining activity at 1 µM: 107%
mTOR/FKBP12(h)
  remaining activity at 1 µM: 100%
Wee1(h)
  remaining activity at 1 µM: 90%
VRK1(h)
  remaining activity at 1 µM: 80%
HIPK4(h)
  remaining activity at 1 µM: 87%
HIPK3(h)
  remaining activity at 1 µM: 92%
CaMKIIβ(h)
  remaining activity at 1 µM: 69%
WNK2(h)
  remaining activity at 1 µM: 80%
SAPK3(h)
  remaining activity at 1 µM: 106%
Abl (H396P) (h)
  remaining activity at 1 µM: 71%
PKCζ(h)
  remaining activity at 1 µM: 80%
CLK3(h)
  remaining activity at 1 µM: 93%
PKG1α(h)
  remaining activity at 1 µM: 88%
NEK11(h)
  remaining activity at 1 µM: 92%
MLK3(h)
  remaining activity at 1 µM: 81%
EphA1(h)
  remaining activity at 1 µM: 56%
TLK1(h)
  remaining activity at 1 µM: 95%
MST3(h)
  remaining activity at 1 µM: 93%
Pim-1(h); 1 μM, read-out: % Residual Activity
  remaining activity at 1 µM: 22%
Pim-1(h); PIM1, 1 μM, read-out: inhibitory activity
  inhibition at 1 µM: > 70%
PI3KC2g(h)
  remaining activity at 1 µM: 82%
JNK2α2(h)
  remaining activity at 1 µM: 85%
